Reference: PubChem BioAssay AID2060903 (Molecular Pharmacology Branch, DTP, NCI, 2025)

Test system: 377384-186-R-J1-PDC complex spheroid viability
Assay: Anticancer human tumor 377384-186-R-J1-PDC patient-derived pancreatic carcinoma cell line growth inhibition [RAS]
Conditions: for IC50: curve of first compound; for viability, T/C: stronger effect = lower value
From the text: RAS pathway inhibitors in Combinations in Complex Spheroids
A high-throughput screen of multi-cell type tumor spheroids was designed to identify active combinations of RAS pathway inhibitors and targeted small molecules. Complex spheroids include a stromal component modeled by human endothelial cells (HUVEC) and fibroblasts modeled by human mesenchymal stem cells (MSCs). The concentration ranges selected for each drug and investigational agent were based upon clinically achievable concentrations if the clinical Cmax of the agent was known.
Compounds. The drugs and investigational agents: abemaciclib (NSC768073), cobimetinib (NSC768068), divarasib (GDC6063, NSC841802), docetaxel (NSC628503), GDC-1971 (RLY-1971, NSC841576), gemcitabine (NSC613327), inavolisib (NSC800729), ipatasertib (NSC767898), KB-0742 (NSC834161), MRTX-1133 (NSC836407), osimertinib (NSC779217), RMC-4630 (NSC839698), RMC-6236 (NSC851965), RMC-6291 (NSC852671), Ro-3306 (NSC812927), sapanisertib (NSC764658), SN-38 (NSC673596), staurosporine (NSC755774), SY5609 (NSC837396), and tovorafenib (DAY101, NSC766906), were obtained from the National Cancer Institute (NCI) Developmental Therapeutics Program Chemical Repository. The FDA-approved anticancer drug set is available from the NCI Developmental Therapeutics Program. […] The stock solutions were prepared in dimethyl sulfoxide (DMSO, Sigma-Aldrich, St. Louis, MO, cat. D2650) at 800-fold the tested concentration and stored at -70 degrees C prior to their use. All drugs and investigational agents were tested over a range starting from a high concentration at or near the clinical Cmax and decreasing in half-log increments. If the clinical Cmax for an agent had not been determined, the highest concentration tested was 10 microM.
Cell Culture. All cells were maintained in an incubator at 37 degrees C and 5% CO2 with 95% humidity. The PDC lines were cultured according to standard operating procedures established by the NCI PDMR. All PDCs were thawed and cultured in Matrigel-coated flasks prepared with a working solution of 1X Ham's F-12 nutrient mix, without supplementation (Invitrogen, Waltham, MA, cat. 11765054), 100 U/mL penicillin-streptomycin (Invitrogen, cat. 15140122), and 2.5% Matrigel (Corning Inc., Corning, NY, cat. 354248) for the first three passages. The 362531-283-R-J2-PDC and 782815-120-R-J1-PDC lines were cultured in 6C/Colon 1B media, which includes advanced DMEM/F-12 (Thermo Fisher Scientific, cat. 12634028), 10 mM HEPES (Thermo Fisher Scientific, cat. 15630080), 1X GlutaMAX supplement (Thermo Fisher Scientific, cat. 35050061), 0.1 mg/mL primocin (InvivoGen, San Diego, CA, cat. ant-pm-2), 10% defined fetal bovine serum, heat inactivated (HyClone Laboratories Inc., Logan, UT, cat. SH30070.03HI), 50% L-WRN conditioned media (ATCC, cat. CRL-3276), 1.25 mM N-Acetyl-L-cysteine (Sigma-Aldrich, cat. A9165), 10 mM nicotinamide (Sigma-Aldrich, cat. N0636), 1X B-27 supplement (Thermo Fisher Scientific, cat. 17504044), 1X N-2 supplement (Thermo Fisher Scientific, cat. 17502048), 50 ng/mL human EGF (Thermo Fisher Scientific, cat. PHG0311), and 10 microM Y-27632 dihydrochloride (Tocris Bioscience, cat. 1254). The K12877-001-R-J1-PDC line was cultured in 6I media, which includes all 6C/Colon 1B media plus 10 ng/mL human FGF-10 (PeproTech, cat. 100-26), 1 ng/mL human FGF-2 (PeproTech, cat. 100-18B), 1 µM prostaglandin E2 (Tocris Bioscience, cat. 2296), […] hydrocortisone (Sigma-Aldrich, cat. H4001), and […] bovine insulin (Sigma-Aldrich, cat. I6634). The K86415-001-R-J1-PDC line was cultured in 6D media, which includes all 6C/Colon 1B media components minus the L-WRN conditioned media. The 485176-168-R4-J1-PDC was cultured in PANC media, which includes all 6C/Colon 1B media plus 100 ng/mL human FGF-10 (PeproTech, cat. 100-26), 500 nM SB-431542 (Selleckchem, cat. S1067), and 10 nM gastrin (Tocris Bioscience, cat. 3006). […]
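Further: spheroids exposed to compounds for seven days before readout.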

Structure (SMILES): C=CC(=O)N1CCN(c2nc(OCC3CCCN3C)nc3c(F)c(-c4nc(N)cc(C)c4C(F)(F)F)c(Cl)cc23)C(C)C1 (configuration not stated) + C#Cc1c(F)ccc2cc(O)cc(-c3ncc4c(N5CC6CCC(C5)N6)nc(OCC56CCCN5CC(F)C6)nc4c3F)c12
- IC50 (second compound 0.0316 µM): < 3.16 nM
- IC50 (second compound 0.1 µM): < 3.16 nM
- IC50 (second compound 0.316 µM): < 3.16 nM
- IC50 (second compound 1 µM): < 3.16 nM
- IC50 (second compound 3.16 µM): < 3.16 nM
- IC50 (second compound 10 µM): < 3.16 nM
- viability, T/C (second compound 0.0316 µM, first compound 0.00316 µM): 24.6%
- viability, T/C (second compound 0.0316 µM, first compound 0.01 µM): 16.6%
- viability, T/C (second compound 0.0316 µM, first compound 0.0316 µM): 20.2%
- viability, T/C (second compound 0.0316 µM, first compound 0.1 µM): 20.3%
- viability, T/C (second compound 0.0316 µM, first compound 0.316 µM): 10.2%
- viability, T/C (second compound 0.0316 µM, first compound 1 µM): 9.03%
- viability, T/C (second compound 0.1 µM, first compound 0.00316 µM): 14.6%
- viability, T/C (second compound 0.1 µM, first compound 0.01 µM): 9.29%
- viability, T/C (second compound 0.1 µM, first compound 0.0316 µM): 10.7%
- viability, T/C (second compound 0.1 µM, first compound 0.1 µM): 9.27%
- viability, T/C (second compound 0.1 µM, first compound 0.316 µM): 5.71%
- viability, T/C (second compound 0.1 µM, first compound 1 µM): 5.75%
- viability, T/C (second compound 0.316 µM, first compound 0.00316 µM): 5.54%
- viability, T/C (second compound 0.316 µM, first compound 0.01 µM): 5.26%
- viability, T/C (second compound 0.316 µM, first compound 0.0316 µM): 4.78%
- viability, T/C (second compound 0.316 µM, first compound 0.1 µM): 5.36%
- viability, T/C (second compound 0.316 µM, first compound 0.316 µM): 4.48%
- viability, T/C (second compound 0.316 µM, first compound 1 µM): 2.79%
- viability, T/C (second compound 1 µM, first compound 0.00316 µM): 3.22%
- viability, T/C (second compound 1 µM, first compound 0.01 µM): 2.82%
- viability, T/C (second compound 1 µM, first compound 0.0316 µM): 3.82%
- viability, T/C (second compound 1 µM, first compound 0.1 µM): 3.54%
- viability, T/C (second compound 1 µM, first compound 0.316 µM): 3.08%
- viability, T/C (second compound 1 µM, first compound 1 µM): 3.36%
- viability, T/C (second compound 3.16 µM, first compound 0.00316 µM): 1.84%
- viability, T/C (second compound 3.16 µM, first compound 0.01 µM): 2.35%
- viability, T/C (second compound 3.16 µM, first compound 0.0316 µM): 2.16%
- viability, T/C (second compound 3.16 µM, first compound 0.1 µM): 1.87%
- viability, T/C (second compound 3.16 µM, first compound 0.316 µM): 2.05%
- viability, T/C (second compound 3.16 µM, first compound 1 µM): 2.48%
- viability, T/C (second compound 10 µM, first compound 0.00316 µM): 1.31%
- viability, T/C (second compound 10 µM, first compound 0.01 µM): 1.46%
- viability, T/C (second compound 10 µM, first compound 0.0316 µM): 0.83%
- viability, T/C (second compound 10 µM, first compound 0.1 µM): 1.21%
- viability, T/C (second compound 10 µM, first compound 0.316 µM): 1.13%
- viability, T/C (second compound 10 µM, first compound 1 µM): 0.62%
